Where two headings read alike, the source gives them in different places.
Assays:
human CB1 receptor = target: T1, human CB1 receptor (Homo sapiens, UniProt P21554); assay: CB1 receptor affinity, [3H]-CP-55,940 displacement, HEK cell membranes; assay type: binding; conditions: read-out: CB1 receptor affinity [% inhibition @ 10 μM]
T1 construct: expressed in transfected cells; host or cells: human embryonic kidney (HEK) cells, Semliki Forest Virus system, membrane preparations
Description: (§1) The affinity of the compounds of the invention for cannabinoid receptors was determined using membrane preparations of human embryonic kidney (HEK) cells in which the human CB1 receptor is transiently transfected using a Semliki Forest Virus system in conjunction with [3H]-CP-55,940 as radioligand. After incubation of freshly prepared cell membrane preparation with the [^3H]-ligand, with or without addition of compounds of the invention, separation of bound and free ligand was performed by filtration over glass fiber filters. Radioactivity on the filter was measured by scintillation counting.
(§2) The ability of the compounds to displace the radioligand [^3H]-CP-55,940 was measured at a concentration of 10 μM and values provided as [% inhibition @ 10 μM] both for the CB 1 and CB2 receptor assay, The lower % inhibition is, the lower the likelihood of side effects based on CB1 or CB2 receptor inhibition is.

human CB2 receptor = target: T2, human CB2 receptor (Homo sapiens, UniProt P34972); assay: CB2 receptor affinity, [3H]-CP-55,940 displacement, HEK cell membranes; assay type: binding; conditions: 10 μM compound, radioligand [3H]-CP-55,940
T2 construct: expressed in transfected cells; host or cells: human embryonic kidney (HEK) cells, Semliki Forest Virus system, membrane preparations
T2 sequence (P34972 whole entry): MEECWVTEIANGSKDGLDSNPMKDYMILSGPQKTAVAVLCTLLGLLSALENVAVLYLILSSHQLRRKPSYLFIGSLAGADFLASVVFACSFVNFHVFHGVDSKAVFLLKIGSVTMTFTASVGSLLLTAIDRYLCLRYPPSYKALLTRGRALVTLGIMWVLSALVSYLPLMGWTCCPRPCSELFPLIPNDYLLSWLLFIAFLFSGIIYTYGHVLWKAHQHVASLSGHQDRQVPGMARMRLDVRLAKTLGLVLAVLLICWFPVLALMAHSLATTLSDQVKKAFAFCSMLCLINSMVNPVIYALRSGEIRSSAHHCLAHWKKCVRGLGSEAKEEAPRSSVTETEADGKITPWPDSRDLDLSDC
Description: as §1, with “cannabinoid CB2” for “cannabinoid”, “CB2” for “CB1”, “[^3H]-CP-55,940” for “[3H]-CP-55,940”
as §2

[1] = 10 μM compound, radioligand [3H]-CP-55,940

T1 sequence (P21554 whole entry): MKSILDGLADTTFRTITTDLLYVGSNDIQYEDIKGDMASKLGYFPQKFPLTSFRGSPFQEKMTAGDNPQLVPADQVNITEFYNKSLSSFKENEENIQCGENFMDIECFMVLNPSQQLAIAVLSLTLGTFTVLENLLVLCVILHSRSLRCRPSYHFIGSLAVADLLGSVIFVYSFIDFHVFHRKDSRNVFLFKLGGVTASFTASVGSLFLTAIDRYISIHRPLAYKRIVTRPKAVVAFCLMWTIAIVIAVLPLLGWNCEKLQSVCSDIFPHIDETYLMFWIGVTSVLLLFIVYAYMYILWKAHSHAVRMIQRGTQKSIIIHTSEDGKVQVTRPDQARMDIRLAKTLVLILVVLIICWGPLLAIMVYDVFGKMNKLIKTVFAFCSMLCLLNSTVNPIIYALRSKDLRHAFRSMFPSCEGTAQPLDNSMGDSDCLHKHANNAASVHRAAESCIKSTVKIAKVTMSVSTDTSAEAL

SMILES	inhibition at 10 µM (human CB1 receptor; [1])	inhibition at 10 µM (human CB2 receptor)	inhibition at 10 µM (human CB1 receptor)
C[C@H](Oc1ncc(C(=O)NCc2nc(C(F)(F)F)no2)nc1-c1ccc(Cl)cc1)C(F)(F)F [Example 36, (S)-6-(4-chlorophenyl)-N-((3-(trifluoromethyl)-1,2,4-oxadiazol-5-yl)methyl)-5-(1,1,1-trifluoropropan-2-yloxy)pyrazine-2-carboxamide]	36%	14%	–
O=C(NCc1nc(C(F)(F)F)no1)c1cnc(OC2CCC2)c(-c2ccc(Cl)cc2)c1 [Example 92, 5-(4-chlorophenyl)-6-cyclobutoxy-N-((3-(trifluoromethyl)-1,2,4-oxadiazol-5-yl)methyl)nicotinamide]	43%	9%	–
O=C(NCc1nc(C(F)(F)F)no1)c1cc(-c2ccc(Cl)cc2)c(OCC2CC2)nn1 [Example 20, 5-(4-chloro-phenyl)-6-cyclopropylmethoxy-pyridazine-3-carboxylic acid (3-trifluoromethyl-[1,2,4]oxadiazol-5-ylmethyl)-amide]	33%	34%	–
O=C(NCc1cc(C(F)(F)F)no1)c1cnc(OCC(F)(F)F)c(-c2ccc(Cl)cc2)c1 [Example 59, 5-(4-chloro-phenyl)-6-(2,2,2-trifluoro-ethoxy)-N-(3-trifluoromethyl-isoxazol-5-ylmethyl)-nicotinamide]	–	-2%	49%
CC(C)c1cc(CNC(=O)c2cnc(OCC3CC3)c(-c3ccc(Cl)cc3)c2)no1 [Example 32, 5-(4-chlorophenyl)-6-(cyclopropylmethoxy)-N-((5-isopropylisoxazol-3-yl)methyl)nicotinamide]	47%	26%	–
O=C(NCc1nc(C2CC2)no1)c1ncc(OCC2CC2)c(-c2ccc(Cl)cc2)n1 [Example 17, 4-(4-chloro-phenyl)-5-cyclopropylmethoxy-pyrimidine-2-carboxylic acid (3-cyclopropyl-[1,2,4]oxadiazol-5-ylmethyl)-amide]	48%	45%	–
CCc1nc(CNC(=O)c2cnc(OCC3CC3)c(-c3ccc(Cl)cc3)c2)cs1 [Example 10, 5-(4-chloro-phenyl)-6-cyclopropylmethoxy-N-(2-ethyl-thiazol-4-ylmethyl)-nicotinamide]	28%	28%	–
O=C(NCc1cc(C2CC2)on1)c1cnc(OCC2CC2)c(-c2ccc(Cl)cc2)c1 [Example 30, 5-(4-chloro-phenyl)-N-(5-cyclopropyl-isoxazol-3-ylmethyl)-6-cyclopropyl-methoxy-nicotinamide]	48%	38%	–
O=C(NCc1cc(C2CC2)no1)c1cc(-c2ccc(Cl)cc2)c(OCC(F)(F)F)cn1 [Example 33, 4-(4-chlorophenyl)-N-((3-cyclopropylisoxazol-5-yl)methyl)-5-(2,2,2-trifluoroethoxy)picolinamide]	33%	26%	–
C[C@H](Oc1cnc(C(=O)NCc2nc(C(F)(F)F)no2)nc1-c1ccc(Cl)cc1)C(F)(F)F [Example 35, (S)-4-(4-chlorophenyl)-N-((3-(trifluoromethyl)-1,2,4-oxadiazol-5-yl)methyl)-5-(1,1,1-trifluoropropan-2-yloxy)pyrimidine-2-carboxamide]	50%	22%	–
COCCOc1ncc(C(=O)NCc2nc(C(F)(F)F)no2)cc1-c1ccc(Cl)c(F)c1 [Example 97, 5-(4-chloro-3-fluorophenyl)-6-(2-methoxyethoxy)-N-((3-(trifluoromethyl)-1,2,4-oxadiazol-5-yl)methyl)nicotinamide]	–	25%	48%
O=C(NCc1nc(C(F)(F)F)no1)c1ncc(OCC2CC2)c(-c2ccc(Cl)cc2)n1 [Example 21, 4-(4-chloro-phenyl)-5-cyclopropylmethoxy-pyrimidine-2-carboxylic acid (3-trifluoromethyl-[1,2,4]oxadiazol-5-ylmethyl)-amide]	44%	35%	–

Now from value to molecule, other results behind:

inhibition at 10 µM (human CB1 receptor; [1])	inhibition at 10 µM (human CB2 receptor)	SMILES	inhibition at 10 µM (human CB1 receptor)
45%	3%	N#Cc1ccc(-c2cc(C(=O)NCc3nc(C(F)(F)F)no3)cnc2OCC(F)(F)F)cc1 [Example 87, 5-(4-cyanophenyl)-6-(2,2,2-trifluoroethoxy)-N-((3-(trifluoromethyl)-1,2,4-oxadiazol-5-yl)methyl)nicotinamide]	–
44%	-2%	CCc1ccc(-c2cc(C(=O)NCc3nc(C(F)(F)F)no3)cnc2OCC(F)(F)F)cc1 [Example 83, 5-(4-ethylphenyl)-6-(2,2,2-trifluoroethoxy)-N-((3-(trifluoromethyl)-1,2,4-oxadiazol-5-yl)methyl)nicotinamide]	–
50%	14%	Cc1noc(CNC(=O)c2cnc(OCC(F)(F)F)c(-c3ccc(Cl)cc3)c2)n1 [Example 90, 5-(4-chlorophenyl)-N-((3-methyl-1,2,4-oxadiazol-5-yl)methyl)-6-(2,2,2-trifluoroethoxy)nicotinamide]	–
36%	38%	CC(C)(C)c1nc(CNC(=O)c2ccc(OCC3CC3)c(-c3ccc(Cl)cc3)n2)cs1 [Example 63, 6-(4-chloro-phenyl)-5-cyclopropylmethoxy-pyridine-2-carboxylic acid (2-tert-butyl-thiazol-4-ylmethyl)-amide]	–
38%	43%	CC(C)c1nc(CNC(=O)c2ccc(OCC3CC3)c(-c3ccc(Cl)cc3)n2)cs1 [Example 52, 6-(4-chloro-phenyl)-5-cyclopropylmethoxy-pyridine-2-carboxylic acid (2-isopropyl-thiazol-4-ylmethyl)-amide]	–
49%	21%	O=C(NCc1nc(C(F)(F)F)no1)c1cnc(OCC(F)(F)F)c(-c2ccc(Cl)cc2F)c1 [Example 84, 5-(4-chloro-2-fluorophenyl)-6-(2,2,2-trifluoroethoxy)-N-((3-(trifluoromethyl)-1,2,4-oxadiazol-5-yl)methyl)nicotinamide]	–
49%	18%	O=C(NCc1cc(C(F)(F)F)on1)c1cnc(OCC2CC2)c(-c2ccc(Cl)cc2)c1 [Example 66, 5-(4-chloro-phenyl)-6-cyclopropylmethoxy-N-(5-trifluoromethyl-isoxazol-3-ylmethyl)-nicotinamide]	–
23%	19%	O=C(NCc1noc(C2CC2)n1)c1cc(-c2ccc(Cl)cc2)c(OCC(F)(F)F)nn1 [Example 41, 5-(4-chloro-phenyl)-6-(2,2,2-trifluoro-ethoxy)-pyridazine-3-carboxylic acid (5-cyclopropyl-[1,2,4]oxadiazol-3-ylmethyl)-amide]	–
37%	14%	CC(C)c1cc(CNC(=O)c2cc(-c3ccc(Cl)cc3)c(OCC(F)(F)F)nn2)on1 [Example 43, 5-(4-chloro-phenyl)-6-(2,2,2-trifluoro-ethoxy)-pyridazine-3-carboxylic acid (3-isopropyl-isoxazol-5-ylmethyl)-amide]	–
40%	20%	COc1cc(CNC(=O)c2cc(-c3ccc(Cl)cc3)c(O[C@@H](C)C(F)(F)F)cn2)on1 [Example 37, (S)-4-(4-chlorophenyl)-N-((3-methoxyisoxazol-5-yl)methyl)-5-(1,1,1-trifluoropropan-2-yloxy)picolinamide]	–
37%	9%	COc1cc(CNC(=O)c2cnc(OCC(F)(F)F)c(-c3ccc(Cl)c(F)c3)c2)on1 [Example 86, 5-(4-chloro-3-fluorophenyl)-N-((3-methoxyisoxazol-5-yl)methyl)-6-(2,2,2-trifluoroethoxy)nicotinamide]	–
34%	40%	C[C@H](Oc1ncc(C(=O)NCc2ccccn2)nc1-c1ccc(Cl)cc1)C(F)(F)F [Example 69, (S)-6-(4-chlorophenyl)-N-(pyridin-2-ylmethyl)-5-(1,1,1-trifluoropropan-2-yloxy)pyrazine-2-carboxamide]	–
39%	9%	O=C(NCc1nc(C(F)(F)F)no1)c1cnc(OC[C@H]2CCOC2)c(-c2ccc(Cl)cc2)c1 (stereo in doubt) [Example 104]	–
26%	21%	CC(C)c1nc(CNC(=O)c2cc(-c3ccc(Cl)cc3)c(OCC(F)(F)F)cn2)no1 [Example 39, 4-(4-chlorophenyl)-N-((5-isopropyl-1,2,4-oxadiazol-3-yl)methyl)-5-(2,2,2-trifluoroethoxy)picolinamide]	–
17%	5%	Cc1ccc(-c2cc(C(=O)NCc3nc(C(F)(F)F)no3)ncc2OCC(F)(F)F)cc1C [Example 78, 4-(3,4-dimethylphenyl)-5-(2,2,2-trifluoroethoxy)-N-((3-(trifluoromethyl)-1,2,4-oxadiazol-5-yl)methyl)picolinamide]	–

Source: patent publication US9090599B2, “Heteroarylmethyl amides” (Hoffman-La Roche Inc., priority 2010, dated 2015)
